What was measured:
Rattus norvegicus [1] = organism: Rattus norvegicus; test: Tested for change in release of insulin from pancreatic islets of Sprague-Dawley rats at a concentration of 2.8 mM glucose; assay type: functional
Rattus norvegicus [2] = organism: Rattus norvegicus; test: Tested for change in release of insulin from pancreatic islets of Sprague-Dawley rats at a concentration of 16.7 mM glucose; assay type: functional

O[C@H]1[C@H](O)[C@H](O)C=C[C@H]1O
Change (Rattus norvegicus [1]): 12%
Change (Rattus norvegicus [2]): 15%

O[C@@H]1[C@H](O)[C@H](O)C=C[C@H]1O
Change (Rattus norvegicus [1]): 27%
Change (Rattus norvegicus [2]): -20%

CC(C)[C@@]12CC[C@@]3(C)C4C1[C@H](O[C@H]2[C@@H]3O)C(O)[C@@H](O)[C@@H]4O (single isomer, unassigned)
Change (Rattus norvegicus [1]): -60%
Change (Rattus norvegicus [2]): -45%

CC(=O)O[C@@H]1[C@H](OC(C)=O)[C@@H](OC(C)=O)C2C(C3CCC2[C@H](O)[C@@H]3O)[C@H]1OC(C)=O (stereo partly specified)
Change (Rattus norvegicus [1]): -60%
Change (Rattus norvegicus [2]): -23%

C[C@@]1(O)CC2C(C[C@@]1(C)O)[C@H](O)[C@@H](O)[C@@H](O)[C@@H]2O (stereo partly specified)
Change (Rattus norvegicus [1]): -60%
Change (Rattus norvegicus [2]): 0%

CC(C)[C@@]12CC[C@@](C)(C3C1[C@H](O)[C@@H](O)[C@@H](O)[C@@H]3O)[C@@H](O)[C@H]2O (stereo partly specified)
Change (Rattus norvegicus [1]): -30%
Change (Rattus norvegicus [2]): -30%

O[C@H]1[C@H](O)[C@@H](O)C=C[C@@H]1O
Change (Rattus norvegicus [1]): 41%
Change (Rattus norvegicus [2]): 50%

O[C@@H]1[C@H](O)[C@H](O)C=C[C@@H]1O
Change (Rattus norvegicus [1]): 0%
Change (Rattus norvegicus [2]): 0%

O[C@@H]1[C@H](O)[C@@H](O)C2C([C@H](O)CC[C@@H]2O)[C@H]1O (stereo partly specified)
Change (Rattus norvegicus [1]): -45%
Change (Rattus norvegicus [2]): -35%

O[C@@H]1[C@H](O)[C@@H](O)C2C(C3CCC2[C@H](O)[C@@H]3O)[C@H]1O (stereo partly specified)
Change (Rattus norvegicus [1]): -18%
Change (Rattus norvegicus [2]): 44%

OC1[C@H]2O[C@@H]3C4CCC(C(C42)[C@@H](O)[C@@H]1O)[C@H]3O (single isomer, unassigned)
Change (Rattus norvegicus [1]): 0%
Change (Rattus norvegicus [2]): -70%

O[C@@H]1[C@H](O)[C@@H](O)C=C[C@H]1O
Change (Rattus norvegicus [1]): 45%
Change (Rattus norvegicus [2]): -30%

O[C@H]1[C@H](O)[C@@H](O)C=C[C@H]1O
Change (Rattus norvegicus [1]): 9%
Change (Rattus norvegicus [2]): -3%

Source: ChEMBL document CHEMBL1149994, “Total synthesis of novel conduritol related compounds capable of modulating insulin release” (1994)
